Laboratory results taken from BindingDB's records for doi:10.1016/j.bmcl.2003.08.070 (Wyeth Research, 2003).

Key:
[1] = molecular target: T1, Leukotriene B4 receptor 1 (Homo sapiens, UniProt Q15722); assay: ChEBML_99664
Excerpt: (§1) Inhibitory concentration against LTB4 receptor determined in human neutrophils PMN assay

[2] = molecular target: Leukotriene B4 receptor 1 (Mus musculus) (UniProt O88855); assay: Inhibitory concentration against LTB4 receptor determined in mast cell line MC-9 assay
[3] = molecular target: T1, Leukotriene B4 receptor 1; assay: as §1

T1 sequence (Q15722 whole entry): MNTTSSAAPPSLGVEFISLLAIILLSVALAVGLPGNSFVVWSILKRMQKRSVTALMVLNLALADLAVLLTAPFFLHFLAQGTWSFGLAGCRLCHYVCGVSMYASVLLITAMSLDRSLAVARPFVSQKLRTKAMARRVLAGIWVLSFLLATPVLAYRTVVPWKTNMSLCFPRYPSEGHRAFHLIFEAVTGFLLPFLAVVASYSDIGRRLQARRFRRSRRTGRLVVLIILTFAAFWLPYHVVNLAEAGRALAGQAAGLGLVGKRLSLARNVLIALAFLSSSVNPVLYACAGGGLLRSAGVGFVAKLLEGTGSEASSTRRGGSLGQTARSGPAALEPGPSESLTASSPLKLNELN
Chain of Leukotriene B4 receptor 1 (Mus musculus) (O88855 whole entry, looked up): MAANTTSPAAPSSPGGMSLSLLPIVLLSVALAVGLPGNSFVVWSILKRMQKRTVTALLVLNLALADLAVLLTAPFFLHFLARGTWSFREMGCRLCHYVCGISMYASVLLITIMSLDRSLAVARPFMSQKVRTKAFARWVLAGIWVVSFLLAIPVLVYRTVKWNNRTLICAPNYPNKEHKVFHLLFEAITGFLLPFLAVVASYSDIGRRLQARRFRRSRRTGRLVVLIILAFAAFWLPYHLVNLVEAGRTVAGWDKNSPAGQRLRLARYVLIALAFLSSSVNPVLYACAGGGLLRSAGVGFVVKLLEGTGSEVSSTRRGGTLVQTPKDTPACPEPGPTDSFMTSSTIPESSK

| IC50 [1] [nM] | IC50 [2] [nM] | IC50 [3] [nM] | Structure (SMILES) |
| --- | --- | --- | --- |
| 400 | 1100 | – | COc1cc(C(=O)O)ccc1Cc1cn(C(c2ccccc2)c2ccccc2)c2ccc(Br)cc12 [4-(1-Benzhydryl-5-bromo-1H-indol-3-ylmethyl)-3-methoxy-benzoic acid] |
| – | – | 400 | COc1cc(C(=O)O)ccc1Cc1cn(C(c2ccccc2)c2ccccc2)c2ccc(C)cc12 [4-(1-Benzhydryl-5-methyl-1H-indol-3-ylmethyl)-3-methoxy-benzoic acid] |
| – | 2800 | 500 | COc1cc(C(=O)O)ccc1Cc1cn(C(c2ccccc2)c2ccccc2)c2ccc([N+](=O)[O-])cc12 [4-(1-Benzhydryl-5-nitro-1H-indol-3-ylmethyl)-3-methoxy-benzoic acid] |
